Assay results from patent US20150246093A1, “ORAL FORMULATIONS OF ANGIOTENSIN” (TARIX PHARMACEUTICALS LTD., priority 2012, published 2015).
Values joined by “and” are separate entries in the source; they are usually repeats but may differ in a detail not shown here. Identical values can stand only once. Like-named read-outs stand apart in the source and are kept apart here.

Experiment: Pharmacokinetics after subcutaneous (SC) administration of angiotensin (1-7) in PBS, plasma LC-MS
Format: in vivo, female Sprague-Dawley rats
Details: for AUC(0-t): read-out: AUC0-90 (converted)
Protocol: Initially, a baseline pharmacokinetic profile in female Sprague-Dawley rats was obtained by subcutaneous (SC) administration of angiotensin (1-7) in phosphate buffered saline (PBS). […]
After extraction, the samples were then transferred to ice-cold tubes containing a protease inhibitor cocktail. The samples were kept on ice until they were centrifuged at 4° C. to obtain plasma. The plasma supernatants were then frozen −70° C. until analysis using an LC-MS assay.
Table 1 summarized exemplary individual baseline A(1-7) levels achieved at the designated time points and the non-compartmental PK values. Three rats were administered 0.3 mL of 10 mg/mL A(1-7) as a subcutaneous injection. The pharmacokinetics of A(1-7) were determined using a non-compartmental model, where individual pharmacokinetics were determined. The mean concentration for each time point was calculated and the PK values for these mean values were estimated. The Tmax was achieved approximately 10 to 90 minutes after administration. Half-lives are approximately 15 minutes for this treatment group. Total mean A(1-7) exposure over the observation period was 614 ng*min/mL with a range of 585 to 656 ng*min/mL.

[1] = SC 0.3 mL of 10 mg/mL A(1-7) in PBS, individual rats

CC[C@H](C)[C@H](NC(=O)[C@H](Cc1ccc(O)cc1)NC(=O)[C@@H](NC(=O)[C@H](CCCNC(=N)N)NC(=O)[C@@H](N)CC(=O)O)C(C)C)C(=O)N[C@@H](Cc1c[nH]cn1)C(=O)N1CCC[C@H]1C(=O)O [Angiotensin (1-7), Asp^1-Arg^2-Val^3-Tyr^4-Ile^5-His^6-Pro^7]
Total mean A(1-7) exposure over the observation period (0.3 mL of 10 mg/mL A(1-7) subcutaneous injection, three rats): 614 ng·min/mL
AUC0-90 [1]: 598.1 ng·min/mL and 656.1 ng·min/mL
Cmax [1]: 15.7 ng/mL and 17.4 ng/mL
Half-Life [1]: 15.58 min
Angiotensin (1-7) concentration (SC 0.3 mL of 10 mg/mL A(1-7) in PBS, time point 0 min (before injection), individual rats): 0.121 ng/mL and 10.2 ng/mL and 1.41 ng/mL
Angiotensin (1-7) concentration (SC 0.3 mL of 10 mg/mL A(1-7) in PBS, time point 5 min, individual rats): 0.120 ng/mL and 7.47 ng/mL and 4.37 ng/mL
Angiotensin (1-7) concentration (SC 0.3 mL of 10 mg/mL A(1-7) in PBS, time point 10 min, individual rats): 18.6 ng/mL and 0.94 ng/mL and 1.09 ng/mL
Angiotensin (1-7) concentration (SC 0.3 mL of 10 mg/mL A(1-7) in PBS, time point 20 min, individual rats): 6.25 ng/mL and 15.7 ng/mL and 5.71 ng/mL
Angiotensin (1-7) concentration (SC 0.3 mL of 10 mg/mL A(1-7) in PBS, time point 40 min, individual rats): 15.30 ng/mL and 6.38 ng/mL and 4.47 ng/mL
Angiotensin (1-7) concentration (SC 0.3 mL of 10 mg/mL A(1-7) in PBS, time point 60 min, individual rats): 1.03 ng/mL and 2.65 ng/mL and 7.46 ng/mL
Angiotensin (1-7) concentration (SC 0.3 mL of 10 mg/mL A(1-7) in PBS, time point 90 min, individual rats): 1.14 ng/mL and 6.59 ng/mL and 17.4 ng/mL
level at 0 h (female, Sprague-Dawley, rat, plasma, 3 mg, SC 0.3 mL of 10 mg/mL A(1-7) in PBS, time point 0 min (before injection), Average, read-out: Angiotensin (1-7) concentration): 4.5 ng/mL
level at 5 min (female, Sprague-Dawley, rat, plasma, 3 mg, SC 0.3 mL of 10 mg/mL A(1-7) in PBS, time point 5 min, Average, read-out: Angiotensin (1-7) concentration): 3.99 ng/mL
level at 10 min (female, Sprague-Dawley, rat, plasma, 3 mg, SC 0.3 mL of 10 mg/mL A(1-7) in PBS, time point 10 min, Average, read-out: Angiotensin (1-7) concentration): 6.88 ng/mL
level at 20 min (female, Sprague-Dawley, rat, plasma, 3 mg, SC 0.3 mL of 10 mg/mL A(1-7) in PBS, time point 20 min, Average, read-out: Angiotensin (1-7) concentration): 9.22 ng/mL
level at 40 min (female, Sprague-Dawley, rat, plasma, 3 mg, SC 0.3 mL of 10 mg/mL A(1-7) in PBS, time point 40 min, Average, read-out: Angiotensin (1-7) concentration): 8.72 ng/mL
level at 1 h (female, Sprague-Dawley, rat, plasma, 3 mg, SC 0.3 mL of 10 mg/mL A(1-7) in PBS, time point 60 min, Average, read-out: Angiotensin (1-7) concentration): 3.71 ng/mL
level at 1.5 h (female, Sprague-Dawley, rat, plasma, 3 mg, SC 0.3 mL of 10 mg/mL A(1-7) in PBS, time point 90 min, Average, read-out: Angiotensin (1-7) concentration): 8.38 ng/mL
Tmax (female, Sprague-Dawley, rat, plasma, sc, 3 mg, 0.3 mL of 10 mg/mL A(1-7) subcutaneous injection, three rats, range over the group, read-out: Tmax after administration): 10 to 90 min
Half-Life (female, Sprague-Dawley, rat, plasma, sc, 3 mg, 0.3 mL of 10 mg/mL A(1-7) subcutaneous injection, three rats, read-out: Half-lives): ~15 min
AUC(0-t) (female, Sprague-Dawley, rat, plasma, sc, 3 mg, SC 0.3 mL of 10 mg/mL A(1-7) in PBS, Average (PK value of the mean concentrations)): 10.2 ng·h/mL
Cmax (female, Sprague-Dawley, rat, plasma, sc, 3 mg, SC 0.3 mL of 10 mg/mL A(1-7) in PBS, Average (PK value of the mean concentrations), read-out: Cmax): 9.2 ng/mL
Tmax (female, Sprague-Dawley, rat, plasma, sc, 3 mg, SC 0.3 mL of 10 mg/mL A(1-7) in PBS, Average (PK value of the mean concentrations), read-out: Tmax (converted)): 20 min
AUC(0-t) (female, Sprague-Dawley, rat, plasma, sc, 3 mg, SC 0.3 mL of 10 mg/mL A(1-7) in PBS, Mean PK Value (average of individual PK parameters)): 10.2 ng·h/mL
Cmax (female, Sprague-Dawley, rat, plasma, sc, 3 mg, SC 0.3 mL of 10 mg/mL A(1-7) in PBS, Mean PK Value (average of individual PK parameters), read-out: Cmax): 17.2 ng/mL
Half-Life (female, Sprague-Dawley, rat, plasma, sc, 3 mg, SC 0.3 mL of 10 mg/mL A(1-7) in PBS, Mean PK Value (average of individual PK parameters), read-out: Half-Life): 15.1 min
Tmax (female, Sprague-Dawley, rat, plasma, sc, 3 mg, SC 0.3 mL of 10 mg/mL A(1-7) in PBS, Mean PK Value (average of individual PK parameters), read-out: Tmax (converted)): 40 min
AUC(0-t) (female, Sprague-Dawley, rat, plasma, sc, 3 mg, SC 0.3 mL of 10 mg/mL A(1-7) in PBS, individual rats): 9.72 ng·h/mL
Cmax (female, Sprague-Dawley, rat, plasma, sc, 3 mg, SC 0.3 mL of 10 mg/mL A(1-7) in PBS, individual rats, read-out: Cmax): 18.6 ng/mL
Half-Life (female, Sprague-Dawley, rat, plasma, sc, 3 mg, SC 0.3 mL of 10 mg/mL A(1-7) in PBS, individual rats, read-out: Half-Life): 15 min
